Reference: US6897219B2, “Heteroaryl diazacycloalkanes, their preparation and use” (priority 1997, dated 2005)
Where a name gives a salt, the structure may show the parent alone. Read-outs that look alike come from different tables or passages of the source.

Columns and labels:
[1] = molecular target: nAChR formed by the α7 subunit isoform (Rattus norvegicus, UniProt Q05941); assay: biochemical; format: binding
[2] = molecular target: nAChRs comprised of α4 and β2 subunits (Rattus norvegicus, UniProt P09483+P12390); assay: In vitro inhibition of 3H-cytisine binding
Method: The predominant subtype with high affinity for nicotine is comprised of α4 and β2 subunits. nAChRs of the latter type can selectively be labelled by the nicotine agonist ^3H-cytisine.
Tissue Preparation: Preparations are performed at 0-4° C. unless otherwise indicated. […] The homogenate is centrifuged at 27,000×g for 10 min. The supernatant is discarded and the pellet is resuspended in fresh buffer and centrifuged a second time. The final pellet is resuspended in fresh buffer (35 ml per g of original tissue) and used for binding assays.
Assay: Aliquots of 500 μl homogenate are added to 25 μl of test solution and 25 μl of ^3H-cytisine (1 nM, final concentration), mixed and incubated for 90 min at 2° C. Non-specific binding is determined using (−)-nicotine (100 μM, final concentration). After incubation the samples are added 5 ml of ice-cold buffer and poured directly onto Whatman GF/C glass fibre filters under suction and immediately washed with 2×5 ml ice-cold buffer. The amount of radioactivity on the filters is determined by conventional liquid scintillation counting. Specific binding is total binding minus non-specific binding.

[3] = molecular target: T1, neuronal nicotinic receptors (α4β2 subtype high affinity site) (Rattus norvegicus, UniProt P09483+P12390); assay: In vitro inhibition of 3H-epibatidin binding
T1 construct: The forebrain (÷cerebellum) from a male Wistar rat (150-250 g) is homogenized; from tissue; host or cells: rat forebrain (without cerebellum) membrane homogenate
Method: The high affinity binding site for ^3H-epibatidin is most certainly binding to the α4β2 subtype of nicotinic receptors. The identity of the low affinity site is still unknown; does it represent a second nicotinic receptor or a second site in the same receptor.
Tissue preparation: Preparations are performed at 0-4° C. unless otherwise indicated. The forebrain (÷cerebellum) from a male Wistar rat (150-250 g) is homogenized for 10-20 sec in 20 ml Tris, HCl (50 mM, pH 7.4) using an Ultra-Turrax homogenizer. The tissue suspension is centrifuged at 27,000×g for 10 min. The supernatant is discarded and the pellet is washed three times by centrifugation at 27,000×g for 10 min in 20 ml fresh buffer, and the final pellet is resuspended in fresh buffer (400 ml per g of original tissue) and used for binding assays.
Assay: Aliquots of 2.0 ml homogenate are added to 0.100 ml of test solution and 0.100 ml of ^3H-epibatidin (0.3 nM, final concentration), mixed and incubated for 60 min at room temperature. Non-specific binding is determined using (−)-nicotine (30 μM, final concentration). After incubation the samples are poured directly onto Whatman GF/C glass fibre filters (presoaked in 0.1% PEI for at least 20 min) under suction and immediately washed with 2×5 ml ice-cold buffer. The amount of radioactivity on the filters is determined by conventional liquid scintillation counting. Specific binding is total binding minus non-specific binding.

[4] = rat cerebral cortex homogenate, 1 nM 3H-cytisine, 90 min at 2° C., read-out: 3H-cytisine IC50
[5] = rat forebrain homogenate, 0.3 nM 3H-epibatidin, 60 min at room temperature, read-out: 3H-epibatidin IC50

Sequence of nAChRs comprised of α4 and β2 subunits (P09483 31-630): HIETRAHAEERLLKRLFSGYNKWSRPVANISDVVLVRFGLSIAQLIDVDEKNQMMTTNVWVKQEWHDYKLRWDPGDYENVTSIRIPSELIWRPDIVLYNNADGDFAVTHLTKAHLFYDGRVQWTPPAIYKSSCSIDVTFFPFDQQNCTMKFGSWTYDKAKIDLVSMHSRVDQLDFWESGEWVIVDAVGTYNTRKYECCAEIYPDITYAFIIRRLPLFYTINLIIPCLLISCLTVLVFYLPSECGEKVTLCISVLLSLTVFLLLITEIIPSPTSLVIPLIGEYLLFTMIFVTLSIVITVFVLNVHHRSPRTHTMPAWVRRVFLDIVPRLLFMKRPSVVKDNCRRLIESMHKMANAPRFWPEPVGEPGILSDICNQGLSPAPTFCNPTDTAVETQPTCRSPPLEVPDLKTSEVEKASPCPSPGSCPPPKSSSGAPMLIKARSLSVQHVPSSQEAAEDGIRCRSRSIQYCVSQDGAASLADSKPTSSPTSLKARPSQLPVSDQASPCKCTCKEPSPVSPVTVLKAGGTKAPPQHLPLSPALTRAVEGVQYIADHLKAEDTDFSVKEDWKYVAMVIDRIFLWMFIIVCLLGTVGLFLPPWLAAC
Sequence of nAChRs comprised of α4 and β2 subunits (P12390 25-500): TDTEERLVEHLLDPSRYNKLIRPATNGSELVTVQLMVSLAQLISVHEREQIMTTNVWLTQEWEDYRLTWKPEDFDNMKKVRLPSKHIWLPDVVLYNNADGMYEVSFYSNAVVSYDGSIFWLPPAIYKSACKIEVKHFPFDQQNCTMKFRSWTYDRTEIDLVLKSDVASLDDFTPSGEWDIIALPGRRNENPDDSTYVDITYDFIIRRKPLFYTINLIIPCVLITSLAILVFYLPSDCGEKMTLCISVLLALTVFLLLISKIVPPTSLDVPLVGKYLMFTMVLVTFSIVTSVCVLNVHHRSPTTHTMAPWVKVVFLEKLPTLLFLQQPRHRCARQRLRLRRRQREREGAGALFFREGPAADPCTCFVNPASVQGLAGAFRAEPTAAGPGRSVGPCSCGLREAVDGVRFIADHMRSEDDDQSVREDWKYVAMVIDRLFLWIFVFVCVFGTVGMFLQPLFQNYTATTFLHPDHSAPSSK
T1 sequence (P09483 31-630): as the sequence (P09483 31-630) above
T1 sequence (P12390 25-500): as the sequence (P12390 25-500) above
Sequence of nAChR formed by the α7 subunit isoform (Q05941 23-502): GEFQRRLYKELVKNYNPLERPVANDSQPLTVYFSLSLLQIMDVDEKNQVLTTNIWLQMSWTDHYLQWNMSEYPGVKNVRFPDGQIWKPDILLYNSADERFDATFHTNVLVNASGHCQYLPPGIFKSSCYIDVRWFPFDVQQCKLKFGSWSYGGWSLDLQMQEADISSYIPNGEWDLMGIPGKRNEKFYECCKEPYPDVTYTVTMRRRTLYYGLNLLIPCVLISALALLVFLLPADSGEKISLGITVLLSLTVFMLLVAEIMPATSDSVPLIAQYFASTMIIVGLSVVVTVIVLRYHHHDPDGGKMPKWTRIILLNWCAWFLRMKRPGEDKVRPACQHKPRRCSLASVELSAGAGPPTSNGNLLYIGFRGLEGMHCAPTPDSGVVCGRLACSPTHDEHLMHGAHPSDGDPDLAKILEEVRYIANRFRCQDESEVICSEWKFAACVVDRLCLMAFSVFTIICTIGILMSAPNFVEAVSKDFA

| Compound | melting point | IC50 [1] | IC50 [2, 4] | IC50 [3, 5] | IC50 [3] | IC50 [2] | IC50 ([1]; read-out: 3H-α-bungarotoxin IC50) |
| --- | --- | --- | --- | --- | --- | --- | --- |
| CCCCCOc1cncc(N2CCCN(C)CC2)c1 (as salt: fumaric acid salt) [Compound 15E, 4-Methyl-1-(5-pentyloxy-3-pyridyl)-homopiperazine] | 129 to 130.8 °C |  |  |  |  |  |  |
| CCCCCCCOc1cncc(N2CCCN(C)CC2)c1 (as salt: fumaric acid salt) [Compound 16E, 1-(5-Heptyloxy-3-pyridyl)-4-methyl-homopiperazine] | 120.2 to 121.8 °C |  |  |  |  |  |  |
| C/C=C/Oc1cncc(N2CCCN(C)CC2)c1 (as salt: fumaric acid salt) [Compound 17E, trans-4-Methyl-1-(5-propyl-1-en-oxy-3-pyridyl)-homopiperazine] | 126 to 128 °C |  |  |  |  |  |  |
| CN1CCCN(c2cncc(SCc3ccccc3)c2)CC1 (as salt: fumaric acid salt) [Compound 18E, 4-Methyl-1-(5-thiobenzyl-3-pyridyl)-homopiperazine] | 131 to 133 °C |  |  |  |  |  |  |
| CN1CCCN(c2cncc(-c3cccnc3)c2)CC1 (as salt: fumaric acid salt) [Compound 19E, 4-Methyl-1-[5-(3-pyridyl)-3-pyridyl]-homopiperazine] | 165.5 to 167.5 °C |  |  |  |  |  |  |
| CN1CCCN(c2cncc(OC3CCCC3)c2)CC1 (as salt: fumaric acid salt) [Compound 25E, 1-(5-Cyclopentyloxy-3-pyridyl)-4-methyl-homopiperazine] | 123 to 125 °C |  |  |  |  |  |  |
| Oc1cncc(N2CCCNCC2)c1 (as salt: hydrochloric acid salt) | 290 to 300 °C |  |  |  |  |  |  |
| CN1CCN(c2cccnc2)CC1 [Compound 1A, 4-Methyl-1-(3-pyridyl)-piperazine] |  | 6800 nM |  |  |  |  |  |
| c1cncc(N2CCNCC2)c1 [Compound 1B, 1-(3-Pyridyl)-piperazine] |  | > 30000 nM | 130 nM | 630 nM |  |  |  |
| CCOc1cncc(N2CCNCC2)c1 [Compound 1D, 1-(5-Ethoxy-3-pyridyl)piperazine] |  | > 30000 nM | 500 nM |  | 1000 nM |  |  |
| CN1CCCN(c2cccnc2)CC1 [Compound 1E, 4-Methyl-1-(3-pyridyl)-homopiperazine] |  | 4600 nM | 150 nM |  | 400 nM |  |  |
| c1cncc(N2CCCNCC2)c1 [Compound 1F, 1-(3-Pyridyl)-homopiperazine] |  |  |  |  | 5 nM | 2 nM |  |
| COc1cncc(N2CCCNCC2)c1 [Compound 1H, 1-(5-Methoxy-3-pyridyl)-homopiperazine] |  | 3000 nM |  |  | 20 nM | 2 nM |  |
| Clc1ccc(N2CCCNCC2)nn1 [Compound 1K, 1-(6-Chloro-3-pyridazinyl)-homopiperazine] |  | 1400 nM |  |  | 60 nM | 10 nM |  |
| c1cnnc(N2CCCNCC2)c1 [Compound 1L, 1-(3-Pyridazinyl)-homopiperazine] |  | 1600 nM |  |  | 250 nM | 30 nM |  |
| COc1cncc(N2CCN(C)C2)c1 [Compound 1M, 1-(5-Methoxy-3-pyridyl)-3-methyl-imidazolidine] |  | > 30000 nM |  |  | 8800 nM | 590 nM |  |
| CCCCOc1cncc(N2CCNCC2)c1 [Compound 2D, 1-(5-Butoxy-3-pyridyl)piperazine] |  | > 30000 nM | 180 nM |  | 1400 nM |  |  |
| CN1CCCN(c2cnc3ccccc3c2)CC1 [Compound 2E, 4-Methyl-1-(3-quinolinyl)-homopiperazine] |  | 1800 nM | 340 nM |  | 4900 nM |  |  |
| c1ccc2ncc(N3CCCNCC3)cc2c1 [Compound 2F, 1-(3-Quinolinyl)-homopiperazine] |  | 5900 nM |  |  | 84 nM | 6 nM |  |
| c1ccc(-c2cncc(N3CCCNCC3)c2)cc1 [Compound 2H, 1-(5-Phenyl-3-pyridyl)-homopiperazine] |  | 37000 nM | 3 nM |  | 20 nM |  |  |
| c1ccc2nc(N3CCCNCC3)cnc2c1 [Compound 2L, 1-(2-Quinoxalinyl)-homopiperazine] |  | 27000 nM | 260 nM |  | 2000 nM |  |  |

| Compound | melting point | IC50 [1] | IC50 [2, 4] | IC50 [3, 5] | IC50 [3] | IC50 [2] | IC50 ([1]; read-out: 3H-α-bungarotoxin IC50) |
| --- | --- | --- | --- | --- | --- | --- | --- |
| COc1cncc(N2CCCN(C)C2)c1 [Compound 2M, 1-(5-Methoxy-3-pyridyl)-3-methyl-1,3-diazacyclohexane] |  | > 30000 nM |  | 2700 nM |  | 90 nM |  |
| COc1cncc(N2CCNCC2)c1 [Compound 3B, 1-(5-Methoxy-3-pyridyl)-piperazine] |  | > 30000 nM | 800 nM |  | 4500 nM |  |  |
| COc1cncc(N2CCCN(C)CC2)c1 [Compound 3E, 1-(5-Methoxy-3-pyridyl)-4-methyl-homopiperazine] |  | 26000 nM |  | 750 nM |  | 94 nM |  |
| CCOc1cncc(N2CCCNCC2)c1 [Compound 3H, 1-(5-Ethoxy-3-pyridyl)-homopiperazine] |  | 20000 nM |  |  | 10 nM | 2 nM |  |
| Clc1cncc(N2CCCNCC2)n1 [Compound 3K, 1-(6-Chloro-2-pyrazinyl)-homopiperazine] |  | 5600 nM |  |  | 160 nM | 20 nM |  |
| Clc1cncc(N2CCNCC2)c1 [Compound 4B, 1-(5-Chloro-3-pyridyl)-piperazine] |  | > 30000 nM | 310 nM |  | 3000 nM |  |  |
| CCOc1cncc(N2CCCN(C)CC2)c1 [Compound 4E, 1-(5-Ethoxy-3-pyridyl)-4-methyl-homopiperazine] |  | > 30000 nM |  | 300 nM |  | 50 nM |  |
| CN1CCN(c2cncc(Cl)c2)CC1 [Compound 5A, 1-(5-Chloro-3-pyridyl)-4-Methyl-piperazine] |  | 73400 nM |  |  | 650 nM | 80 nM |  |
| CN1CCCN(c2cncc(-c3ccccc3)c2)CC1 [Compound 5E, 4-Methyl-1-(5-phenyl-3-pyridyl)-homopiperazine] |  | 16000 nM | 200 nM |  | 1500 nM |  |  |
| COc1cc(N2CCCNCC2)cnc1Cl [Compound 5F, 1-(6-Chloro-5-methoxy-3-pyridyl)-homopiperazine] |  | 900 nM |  |  | 5 nM | 0.7 nM |  |
| COCCOc1cncc(N2CCCNCC2)c1 [Compound 5H, 1-(5-Methoxyethoxy-3-pyridyl)-homopiperazine] |  | 19000 nM |  |  | 20 nM | 2 nM |  |
| Cc1ccc(N2CCCNCC2)nn1 [Compound 5K, 1-(6-Methyl-3-pyridazinyl)-homopiperazine] |  | 4800 nM |  |  | 740 nM | 160 nM |  |
| CN1CCN(c2cncc(-c3ccccc3)c2)CC1 [Compound 6A, 4-Methyl-1-(5-phenyl-3-pyridyl)-piperazine] |  | > 30000 nM |  | 1100 nM |  | 80 nM |  |
| COc1cncc(N2CCCNCCC2)c1 [Compound 6B, 1-(5-Methoxy-3-pyridyl)-1,5-diazacyclooctane] |  | 2500 nM |  |  | 3.2 nM | 1 nM |  |
| CCCCOc1cncc(N2CCCN(C)CC2)c1 [Compound 6E, 1-(5-Butoxy-3-pyridyl)-4-methyl-homopiperazine] |  | > 30000 nM |  | 240 nM |  | 45 nM |  |
| CC(C)COc1cncc(N2CCCNCC2)c1 [Compound 6H, 1-[5-(2-Methyl-propoxy)-3-pyridyl]-homopiperazine] |  | > 30000 nM |  |  | 10 nM | 2 nM |  |
| FC(F)(F)c1cncc(N2CCCNCC2)c1 [Compound 6K, 1-(5-Triflouromethyl-3-pyridyl)-homopiperazine] |  |  | 9 nM | 40 nM |  |  | 6400 nM |
| CCOc1cncc(N2CCN(C)CC2)c1 [Compound 7A, 1-(5-Ethoxy-3-pyridyl)-4-methyl-piperazine] |  | > 30000 nM |  |  | 90 nM | 6 nM |  |
| Clc1ccc(N2CCCNCCC2)nn1 [Compound 7B, 1-(6-Chloro-3-pyridazinyl)-1,5-diazacyclooctane] |  | 460 nM |  | 150 nM |  | 30 nM |  |
| COc1cncc(N2CCCN(C)CCC2)c1 [Compound 11A] |  |  |  | 1200 nM |  |  |  |
| COc1cncc(N2CCCNC(C)CC2)c1 (stereo not shown) [Compound 11A] |  | > 30000 nM |  |  |  | 40 nM |  |
